{"source": "patent US10174016B2", "about": "(BAYER AKTIENGESELLSCHAFT, priority 2014, dated 2019)", "key": {"rat hepatocytes": {"system": "rat hepatocytes", "test": "In vitro metabolic stability in rat hepatocytes", "type": "in vitro ADME, Han Wistar rats", "settings": "1 μM, 1.0×10^6 cells/mL, maximal oral bioavailability calculated from half-life", "protocol": "Determination of in vitro metabolic stability in rat hepatocytes (including calculation of hepatic in vivo blood clearance (CL))\nHepatocytes from Han Wistar rats were isolated via a 2-step perfusion method. After perfusion, the liver was carefully removed from the rat: the liver capsule was opened and the hepatocytes were gently shaken out into a Petri dish with ice-cold Williams' medium E (WME). The resulting cell suspension was filtered through sterile gaze in 50 mL falcon tubes and centrifuged at 50×g for 3 min at room temperature. The cell pellet was resuspended in 30 mL WME and centrifuged through a Percoll® gradient for 2 times at 100×g. The hepatocytes were washed again with WME and resuspended in medium containing 5% FCS. Cell viability was determined by trypan blue exclusion.\nThe test compound was added to a final concentration of 1 μM. […] Samples were frozen at −20° C. overnight, subsequently centrifuged for 15 minutes at 3000 rpm and the supernatant was analyzed with an Agilent 1200 HPLC-system with LCMS/MS detection.\nThe half-life of a test compound was determined from the concentration-time plot. From the half-life (kel: slope of concentration-time plot; half-life=ln 2/kel) the intrinsic clearances were calculated. Together with the additional parameters liver blood flow, amount of liver cells in vivo and in vitro.\n(§1) Metabolic instability is often the main clearance mechanism of xenobiotica leading to a high CL and low bioavailability which may eventually result in a short half-life and a low exposure after oral administration. Thus, reducing the susceptibility of metabolic degradation usually leads to a more favourable pharmacokinetic profile. When using liver microsomes as incubation matrix main phase I metabolic reactions, typically oxidoreductive reactions by cytochrome P450 enzymes and flavin mono-oxygenases (FMO) and hydrolytic reactions by esterases/amidases/epoxidhydrolases, are described. When the incubation of the test compound is performed in a hepatocyte matrix all potential hepatic metabolic processes (phase I and phase II) are covered."}, "vaginal hyperalgesia": {"system": "vaginal hyperalgesia", "test": "Rat dyspareunia model (visceromotor response to vaginal distension)", "type": "in vivo, female Sprague Dawley rats", "text": "The visceromotor response (VMR) to vaginal distension was used in conscious animals as an objective measure of vaginal sensitivity. […] To measure VMR response, 2 Teflon-coated wire electrodes were sutured in the external oblique abdominal muscle, and tunneled subcutaneously to be exteriorized at the base of the neck for future access. On the day of VMR assessment, a lubricated small balloon (1 cm length) was inserted into the mid-vaginal canal. The balloon catheter was secured to the base of the tail and connected to a volume controller/timing device (infusion pump) for balloon distension. The vaginal balloon was inflated to ramp intensities of distension (0.05 ml increments every 20 sec.) to a maximal volume of 0.8 ml. The electrodes were connected to an amplifier (Animal Bio Amp, ADInstrunnents), and the abdominal electromyographic signal was recorded using a data acquisition system (PowerLab, ADInstrunnents) for off-line analysis using LabChart version 7. The number of abdominal muscle contractions was counted manually for each 0.1 ml distension step, as an index of vaginal pain. […] All data were expressed as mean±standard deviation (s.d.), for the number (n) of measured rats per group. […] Planned comparison of means (matched-volume versus vehicle) was performed using a Bonferroni post hoc test, provided that a main effect was detected. […]"}, "[1]": {"test": "In vitro metabolic stability in liver microsomes (calculation of CL and Fmax)", "type": "in vitro ADME, human", "settings": "1 μM, 0.5 mg/mL protein, maximal oral bioavailability calculated from half-life", "protocol": "In Vitro Metabolic Stability Assays Determination of in vitro metabolic stability in microsomes (including calculation of hepatic in vivo blood clearance (CL) and of maximal oral bioavailability (Fmax))\nThe metabolic assay was started shortly afterwards by adding the test compound to the incubation at a final volume of 1 mL. Organic solvent in the incubations was limited to […] dimethylsulfoxide (DMSO) and ≤1% acetonitrile. […] Samples were frozen at −20° C. overnight, subsequently centrifuged for 15 minutes at 3000 rpm and the supernatant was analyzed with an Agilent 1200 HPLC-system with LCMS/MS detection.\nThe half-life of a test compound was determined from the concentration-time plot. From the half-life (kel: slope of concentration-time plot; half-life=ln 2/kel) the intrinsic clearances were calculated. Together with the additional parameters liver blood flow, specific liver weight and microsomal protein content the hepatic in vivo blood clearance (CL) and the maximal oral bioavailability (Fmax) were calculated for the different species.\nas §1"}, "[2]": {"system": "CFA-induced mechanical hyperalgesia", "test": "Mouse CFA in vivo model (von Frey filaments)", "design": "species or system Female C57BL/6 mice", "settings": "25 mg/kg p.o. b.i.d., 72 hrs after CFA-injection", "protocol": "Mouse CFA In Vivo Model […] Mechanical hyperalgesia was measured using von Frey filaments. Briefly, von Frey filaments were being used to stimulate the animal's hindpaw and a behavioural response was measured depending on the strength of the von Frey filament used. The strength of the filament was expressed in [g] and the threshold was recorded when a response of the animal was observed. Both CFA-injected and contralateral response thresholds were determined for each mouse and in each treatment group 72 hrs after CFA-injection. Compound application was done p.o. b.i.d., starting one hour before CFA injection. Data were expressed as the mean threshold for each treatment group. Data were analysed by performing a one way ANOVA over the different dose groups. Planned comparison of means (each versus vehicle) was performed by using a Dunnett's post hoc test, provided that a main effect was detected."}, "[3]": {"system": "CFA-induced mechanical hyperalgesia", "test": "Rat CFA in vivo model (mechanical hyperalgesia, paw withdrawal threshold)", "design": "species or system Male Sprague Dawley rats", "settings": "3 mg/kg p.o., dosed 24 hours after CFA injection", "protocol": "Rat CFA In Vivo Model Male Sprague Dawley rats were used. Mechanical hyperalgesia was induced by injecting 25 μl of Complete Freund's Adjuvant (CFA) into the plantar surface of one hind paw. Mechanical hyperalgesia was measured using the Pressure Application Measurement apparatus (Ugo Basile, Gemonio, Italy). Briefly, a linearly increasing pressure was applied to an area of ˜50 mm2 of the plantar side of the hind paw until a behavioural response (paw withdrawal) was observed or until the pressure reached 1000 gf. The pressure at which the behavioural response occurred was recorded as the “Paw Withdrawal Threshold” (PWT). Both CFA-injected and contralateral PWTs were determined for each rat, in each treatment group and at each time point of the studies. […] Compounds were dosed 24 hours after CFA injection. Data were expressed as the mean PWT for each treatment group and at each time point. Data were analysed by performing a repeated measures two way ANOVA (time×treatment). Planned comparison of means (each versus vehicle) was performed by using a Dunnett's post hoc test, provided that a main effect was detected. […] More preferred examples of the present invention show rat CFA in vivo efficacy in the ‘Paw withdrawal threshold 6 hours post drug’ measure when dosed at 3 mg/kg p.o."}, "[4]": {"test": "In vivo pharmacokinetics in dogs", "settings": "Beagle, plasma, dog", "experimental": "For pharmacokinetics after intragastral administration test compounds were given intragastral to fasted rats, dogs and monkeys. […] An aliquot of 100 μL from the supernatant (plasma) was taken and precipitated by addition of 400 μL cold acetonitril and frozen at −20° C. over night. Samples were subsequently thawed and centrifuged at 3000 rpm, 4° C. for 20 minutes. Aliquots of the supernatants were taken for analytical testing using an Agilent HPLC-system with LCMS/MS detection. PK parameters were calculated by non-compartmental analysis using a PK calculation software, (e.g. Phoenix WinNonlin®, Certara USA, Inc.).\nPK parameters directly taken or calculated from concentration time profiles after i.g.: Cmax: Maximal plasma concentration (directly taken from the profile in mg/L); Cmaxnorm: Cmax divided by the administered dose (in kg/L); Tmax: Time point at which Cmax was observed (in h)."}, "[5]": {"test": "Human liver cytosol stability assay", "type": "in vitro ADME", "settings": "human liver cytosol 1 mg/mL, 1 or 10 μM, 37° C.", "protocol": "Human Liver Cytosol Stability Assay\nMethod description: Human liver cytosol (pooled, >30 male and female donors) was incubated with individual test compounds in order to compare the extent of depletion of test compound and formation of the respective oxidised metabolite. […] An incubation volume of 1000 μL was used. The test compound was added from a stock solution in acetonitrile at 1 or 10 μM concentration in the incubation. Incubations were performed at 37° C. Reactions were stopped at 0 h and 4 h after incubation by addition of 100 μL acetonitrile to 250 μL of incubation mixture. Precipitated proteins were removed by centrifugation at approximately 3000 rpm. The supernatants were stored at approximately −20° C. until they were analysed. […]\nData analysis: The depletion of the test compound and formation of the corresponding metabolites were determined by decrease or increase of the corresponding peak area in the chromatogram after UV detection at approximately 300 nm 4 h after incubation compared to that at 0 h after incubation. […]"}}, "note": "Read-outs that look alike come from different tables or passages of the source."}
{"molecule": "Cc1cnc(-c2cc(O[C@@H]3CCOC3)cc(C(=O)N[C@H](C)c3cnc(C(F)(F)F)nc3)c2)s1", "note": "[Example 11, 3-(5-Methyl-1,3-thiazol-2-yl)-5-[(3R)-tetrahydrofuran-3-yloxy]-N-{(1R)-1-[2-(trifluoromethyl)pyrimidin-5-yl]ethyl}benzamide]", "values": [{"measurement": "Rat hepatocyte Fmax", "setting": "rat hepatocytes", "result": 52, "unit": "%"}, {"measurement": "vaginal hyperalgesia compared to vehicle-treated animals", "setting": "vaginal hyperalgesia; 15 mg/kg oral b.i.d. during 2 weeks", "result": "decreased vaginal hyperalgesia"}, {"measurement": "AUC of cumulative number of abdominal contractions against vaginal distension volume", "setting": "vaginal hyperalgesia; 15 mg/kg oral b.i.d. for 2 weeks, 6 weeks post-implantation (off-drug), mean ± s.d.", "result": "1.64 ± 1.53 (17)"}, {"measurement": "Human liver microsome Fmax", "setting": "[1]", "result": 57, "unit": "%"}, {"measurement": "Efficacy mouse CFA model (von Frey response threshold)", "setting": "[2]", "result": "0.682 g ± 0.122 (*)"}, {"measurement": "Paw withdrawal threshold 6 hour-post drug", "setting": "[3]", "result": "639 ± 48 gf (*)"}, {"measurement": "half-life", "setting": "[4]; iv, 0.5 mg/kg i.v., read-out: Dog t½ i.v. (converted)", "result": 8.8, "unit": "h"}, {"measurement": "bioavailability", "setting": "[4]; oral, 1 mg/kg p.o., 0.5 mg/kg i.v., read-out: Dog Bioavailability (BA)", "result": 70, "unit": "%"}, {"measurement": "half-life", "setting": "[4]; po, 1 mg/kg p.o., read-out: Dog t½ p.o. (converted)", "result": 12, "unit": "h"}, {"measurement": "Test compound turnover after 4 h", "setting": "[5]", "result": 12, "unit": "%"}]}
